In ChEMBL document CHEMBL5325435, “Optimization of an α-aminonaphthylmethylphosphonic acid inhibitor of purple acid phosphatase using rational structure-based design approaches” (Eur J Med Chem, 2023):

Assay: Competitive inhibition of pig uterine fluid fully reduced PAP using p-NPP as substrate measured at 4.9 by UV-Vis spectrophotometric analysis
Format: tissue-based, Sus scrofa

Which Ki does the source give for CCCCCCCCCCCCCCCCOCC(=O)NC(c1ccc(OC)cc1)P(=O)(O)O (racemic) here?
Its Ki is 270 nM.

For CCCCCCCCCCCCCCCC(=O)NC(c1ccc(OCC)cc1)P(=O)(O)O (racemic), which Ki is on record?
Its Ki is 610 nM.

For CCCCCCCCCCCCCC(=O)NC(c1ccccc1)P(=O)(O)O (racemic), which Ki is on record?
Its Ki is 320 nM.

Which Ki does the source give for CCCCCCCCCCCCCCCCCC(=O)NC(c1ccc(OCC)cc1)P(=O)(O)O (racemic) here?
Its Ki is 6000 nM.

Which Ki does the source give for CCCCCCCCOCC(=O)NC(c1ccccc1)P(=O)(O)O (racemic) here?
Its Ki is 56000 nM.

Which Ki does the source give for CCCCCCCCCCCC(=O)NC(c1ccc(OC)cc1)P(=O)(O)O (racemic) here?
The Ki was 3000 nM.

For CCCCCCCCCCCC(=O)NC(c1ccccc1)P(=O)(O)O (racemic), which Ki is on record?
The Ki was 31000 nM.

For CCCCCCCCCCCCCC(=O)NC(c1ccc(OCC)cc1)P(=O)(O)O (racemic), which Ki is on record?
The Ki was 3000 nM.

Which Ki does the source give for CCCCCCCCCCCCCCCC(=O)NC(c1ccccc1)P(=O)(O)O (racemic) here?
The Ki was 320 nM.

For CCCCCCCCCCCCCCCC(=O)NC(c1ccc(OC)cc1)P(=O)(O)O (racemic), which Ki is on record?
The Ki was 340 nM.

Which Ki does the source give for CCCCCCCCCC(=O)NC(c1ccccc1)P(=O)(O)O (racemic) here?
The Ki was 19000 nM.

With CCCCCCCCCCCCCCCCOCC(=O)NC(c1ccccc1)P(=O)(O)O (racemic) as the compound, how does the Ki read?
The Ki was 550 nM.

With CCCCCCCCCCCCCC(=O)NC(c1ccc(OC)cc1)P(=O)(O)O (racemic) as the compound, how does the Ki read?
Its Ki is 400 nM.

For CCCCCCCCCCCCCCCCCC(=O)NC(c1ccc(OC)cc1)P(=O)(O)O (racemic), which Ki is on record?
The Ki was 186 nM.

For CCCCCCCCCCCCCCCCCC(=O)NC(c1ccccc1)P(=O)(O)O (racemic), which Ki is on record?
Its Ki is 168 nM.
